Six substances from patent US5234907A, “Synthetic vasoactive intestinal peptide analogs” (Hoffmann-La Roche Inc., priority 1991, dated 1993) can be followed below.

*1 amine or outer side, *2 acyl side, *3 side chain or, on linkers, in order; H or OH if unused. [ ]: non-standard residue; d: D form. Cys(Acm) = CC(=O)NCSC[C@H](N[*:1])C(=O)[*:2]; Phe(4-F) = N[C@@H](Cc1ccc(F)cc1)C(=O)O; 2Nal = N[C@@H](Cc1ccc2ccccc2c1)C(=O)O; Nle = CCCC[C@H](N)C(=O)O; Orn = NCCC[C@H](N)C(=O)O

Experiment [1] has as its system guinea pig tracheal smooth muscle. Description: Tracheal relaxant activity of VIP analogs on isolated guinea pig tracheal rings. The format is cell-based. The note with it: cumulative concentration response; responses as % of maximum response to VIP (10^-6 M=100%); at least three tissues pooled; linear regression. The method, then:
The relaxant activity of the VIP analogs was studied in a model utilizing guinea pig trachea. [Wasserman, M. A. et al., in Vasoactive Intestinal Peptide, S. I. Said, ed., Raven Press, N.Y. 1982, pp 177-184]; All tissues were taken from male albino guinea pig weighing 400-600 g, anesthesized with urethane (2 g/kg, i.p.). After exanguination, the trachea were removed and divided into four ring segments (3 mm length). Each ring was suspended by 30 gauge stainless steel wires in a 10 mL jacketed tissue bath and attached via 4-0 silk thread to a Grass force displacement transducer (model FT03C, Grass Instruments Co., Quincy, Ma), for isometric recording of tension. The smooth muscle was bathed in modified Krebs solution of the following composition: NaCl, 120 mM; KCl, 4.7 mM; CaCl2, 2.5 mM; MgSO.4 7H2 O, 1.2 mM; NaHCO3, 25 mM; K2 HPO4 monobasic, 1.2 mM; and dextrose, 10 mM. Tissue baths were maintained at 37° C. and constantly bubbled with 95% O2 and 5% CO2. Responses were recorded on an 8 channel and a 4 channel Hewlett-Packard (model 7702B and 7754A, respectively) recorder (Hewlett-Packard, Paramus, N.J.). […] Frequent readjustments of tension were required during the 60 minute stabilization period which followed. Tissues were rinsed at 15 minute intervals.
Cumulative concentration response curves were obtained for each tissue by successive […] increases in the bath concentration of VIP or VIP analogs according to the method of VanRossum [Arch. Int. Pharmacodyn., 143, 299-330 (1963)]. Only one cumulative dose response curve was obtained on a single tissue. To minimize variability between tissues, relaxant responses were expressed as a percentage of the maximum response obtained to VIP (10^-6 M=100%) added at the end of each concentration response experiment. Responses obtained from at least three tissues were pooled and EC50 values were determined by linear regression.

In the next experiment the test system is guinea pigs. Description: In vivo bronchodilator activity by tracheal instillation against histamine-induced bronchoconstriction. Also noted: species or system guinea pig. The settings on record: 100 μl, anesthetized male Hartley guinea pigs, histamine challenge 50 μg/kg i.v., inhibition of tracheal pressure increase. The method, then:
The in vivo bronchodilator activity of VIP analogs in guinea pigs was assessed by the tracheal instillation route of administration. This technique utilized male guinea pigs (Hartley strain, Charles River) weighing 400-600 g. Animals were anesthetized with urethane (2 g/kg) intraperitoneally and a polyethylene cannula was inserted into the jugular vein for intravenous drug administration.
The animals were tracheotomized and dosing solutions of distilled water or test compound dissolved in distilled water were administered into the trachea, approximately three-quarter the distance to the carina with a pipette. The concentration of the dosing solution was adjusted to deliver a constant volume of 100 μl. The animals were placed supine for one minute to aid drug delivery to the lung. One minute later, spontaneous breathing was arrested with succinylcholine chloride (1.2 mg/kg) administered intravenously, and the animals were ventilized with a Harvard Model 680 small animal respirator set at 40 breaths/min and 4.0 cm^3 stoke volume. The animals were challenged with a maximal constrictory dose of histamine (50 μg/kg, i.v.) and tracheal pressure (cm of water) was recorded from a Statham pressure transducer (P 32 AA).
The change in tracheal pressure was averaged for at least 3 control and 3 drug-treated animals and percent inhibition was calculated. The relative potency of compounds administered by the instillation route was determined by administering various doses of test compound and calculating the median inhibitory dose (ID50 value). The ID50 was determined from log dose-reasons curves generated by at least 3 doses that caused inhibitory effects between 10% and 90%. The correlation coefficient for the regression line of each antagonist was always greater than 0.95.
For determination of the time course of inhibition for various compounds, the time between administration of compound and challenge with histamine was varied. The time course of activity was calculated as the time when inhibition decreased to 40%.

As to “Ac--[2-Nal^10, Lys^12, Nle^17, Ala^19, Val^26, Thr^28, Gly^29,30, Met^31 ]--VIP (Ac-HSDAVFTDN[2Nal]TKLRKQ[Nle]AAKKYLNSVLTGGM-NH2; SMILES CCCC[C@H](NC(=O)[C@H](CCC(N)=O)NC(=O)[C@H](CCCCN)NC(=O)[C@H](CCCNC(=N)N)NC(=O)[C@H](CC(C)C)NC(=O)[C@H](CCCCN)NC(=O)[C@@H](NC(=O)[C@H](Cc1ccc2ccccc2c1)NC(=O)[C@H](CC(N)=O)NC(=O)[C@H](CC(=O)O)NC(=O)[C@@H](NC(=O)[C@H](Cc1ccccc1)NC(=O)[C@@H](NC(=O)[C@H](C)NC(=O)[C@H](CC(=O)O)NC(=O)[C@H](CO)NC(=O)[C@H](Cc1c[nH]cn1)NC(C)=O)C(C)C)[C@@H](C)O)[C@@H](C)O)C(=O)N[C@@H](C)C(=O)N[C@@H](C)C(=O)N[C@@H](CCCCN)C(=O)N[C@@H](CCCCN)C(=O)N[C@@H](Cc1ccc(O)cc1)C(=O)N[C@@H](CC(C)C)C(=O)N[C@@H](CC(N)=O)C(=O)N[C@@H](CO)C(=O)N[C@H](C(=O)N[C@@H](CC(C)C)C(=O)N[C@H](C(=O)NCC(=O)NCC(=O)N[C@@H](CCSC)C(N)=O)[C@@H](C)O)C(C)C) [Ac--(SEQ ID NO: 18)--NH2]”, the EC50 (usually the concentration needed to bring the measured effect to its halfway point) in experiment [1] worked out at 0.24 nM. The “Bronchodilator activity in guinea pigs, ED50” value (“Bronchodilator activity” below) with guinea pigs came out at 0.35 µg.

The substance “Ac--[Glu^8, Lys^12, Nle^17, Ala^19, Val^26, Thr^28, Gly^29,30, Thr^31 ]--VIP (Ac-HSDAVFTENYTKLRKQ[Nle]AAKKYLNSVLTGGT-NH2; SMILES CCCC[C@H](NC(=O)[C@H](CCC(N)=O)NC(=O)[C@H](CCCCN)NC(=O)[C@H](CCCNC(=N)N)NC(=O)[C@H](CC(C)C)NC(=O)[C@H](CCCCN)NC(=O)[C@@H](NC(=O)[C@H](Cc1ccc(O)cc1)NC(=O)[C@H](CC(N)=O)NC(=O)[C@H](CCC(=O)O)NC(=O)[C@@H](NC(=O)[C@H](Cc1ccccc1)NC(=O)[C@@H](NC(=O)[C@H](C)NC(=O)[C@H](CC(=O)O)NC(=O)[C@H](CO)NC(=O)[C@H](Cc1c[nH]cn1)NC(C)=O)C(C)C)[C@@H](C)O)[C@@H](C)O)C(=O)N[C@@H](C)C(=O)N[C@@H](C)C(=O)N[C@@H](CCCCN)C(=O)N[C@@H](CCCCN)C(=O)N[C@@H](Cc1ccc(O)cc1)C(=O)N[C@@H](CC(C)C)C(=O)N[C@@H](CC(N)=O)C(=O)N[C@@H](CO)C(=O)N[C@H](C(=O)N[C@@H](CC(C)C)C(=O)N[C@H](C(=O)NCC(=O)NCC(=O)N[C@H](C(N)=O)[C@@H](C)O)[C@@H](C)O)C(C)C) [Ac--(SEQ ID NO: 15)--NH2]” returned an EC50 in experiment [1] of 0.55 nM. For the same substance, the “Bronchodilator activity” value with guinea pigs came out at 0.064 µg.

For “Ac--[Lys^12, Nle^17, Ala^19, Ala^25, Leu^26, Lys^27,28, Ala^29-31 ]--VIP (Ac-HSDAVFTDNYTKLRKQ[Nle]AAKKYLNALKKAAA-NH2; SMILES CCCC[C@H](NC(=O)[C@H](CCC(N)=O)NC(=O)[C@H](CCCCN)NC(=O)[C@H](CCCNC(=N)N)NC(=O)[C@H](CC(C)C)NC(=O)[C@H](CCCCN)NC(=O)[C@@H](NC(=O)[C@H](Cc1ccc(O)cc1)NC(=O)[C@H](CC(N)=O)NC(=O)[C@H](CC(=O)O)NC(=O)[C@@H](NC(=O)[C@H](Cc1ccccc1)NC(=O)[C@@H](NC(=O)[C@H](C)NC(=O)[C@H](CC(=O)O)NC(=O)[C@H](CO)NC(=O)[C@H](Cc1c[nH]cn1)NC(C)=O)C(C)C)[C@@H](C)O)[C@@H](C)O)C(=O)N[C@@H](C)C(=O)N[C@@H](C)C(=O)N[C@@H](CCCCN)C(=O)N[C@@H](CCCCN)C(=O)N[C@@H](Cc1ccc(O)cc1)C(=O)N[C@@H](CC(C)C)C(=O)N[C@@H](CC(N)=O)C(=O)N[C@@H](C)C(=O)N[C@@H](CC(C)C)C(=O)N[C@@H](CCCCN)C(=O)N[C@@H](CCCCN)C(=O)N[C@@H](C)C(=O)N[C@@H](C)C(=O)N[C@@H](C)C(N)=O) [Ac--(SEQ ID NO: 22)--NH2]”, in experiment [1], the response was half-maximal at 0.24 nM (EC50). For the same substance, the “Bronchodilator activity” value with guinea pigs was 0.046 µg.

“Ac--[Lys^12, Nle^17, Ala^19, Val^26, Thr^28, Ala^29-31 ]--VIP (Ac-HSDAVFTDNYTKLRKQ[Nle]AAKKYLNSVLTAAA-NH2; SMILES CCCC[C@H](NC(=O)[C@H](CCC(N)=O)NC(=O)[C@H](CCCCN)NC(=O)[C@H](CCCNC(=N)N)NC(=O)[C@H](CC(C)C)NC(=O)[C@H](CCCCN)NC(=O)[C@@H](NC(=O)[C@H](Cc1ccc(O)cc1)NC(=O)[C@H](CC(N)=O)NC(=O)[C@H](CC(=O)O)NC(=O)[C@@H](NC(=O)[C@H](Cc1ccccc1)NC(=O)[C@@H](NC(=O)[C@H](C)NC(=O)[C@H](CC(=O)O)NC(=O)[C@H](CO)NC(=O)[C@H](Cc1c[nH]cn1)NC(C)=O)C(C)C)[C@@H](C)O)[C@@H](C)O)C(=O)N[C@@H](C)C(=O)N[C@@H](C)C(=O)N[C@@H](CCCCN)C(=O)N[C@@H](CCCCN)C(=O)N[C@@H](Cc1ccc(O)cc1)C(=O)N[C@@H](CC(C)C)C(=O)N[C@@H](CC(N)=O)C(=O)N[C@@H](CO)C(=O)N[C@H](C(=O)N[C@@H](CC(C)C)C(=O)N[C@H](C(=O)N[C@@H](C)C(=O)N[C@@H](C)C(=O)N[C@@H](C)C(N)=O)[C@@H](C)O)C(C)C) [Ac--(SEQ ID NO: 10)--NH2]” yielded an EC50 in experiment [1] of 0.3 nM. Also, the “Bronchodilator activity” value with guinea pigs came to 0.82 µg.

In experiment [1], “Ac--[Lys^12, Nle^17, Ala^19, Val^26, Thr^28, Gly^29, Lys^30 ]--VIP (Ac-HSDAVFTDNYTKLRKQ[Nle]AAKKYLNSVLTGK-NH2; SMILES CCCC[C@H](NC(=O)[C@H](CCC(N)=O)NC(=O)[C@H](CCCCN)NC(=O)[C@H](CCCNC(=N)N)NC(=O)[C@H](CC(C)C)NC(=O)[C@H](CCCCN)NC(=O)[C@@H](NC(=O)[C@H](Cc1ccc(O)cc1)NC(=O)[C@H](CC(N)=O)NC(=O)[C@H](CC(=O)O)NC(=O)[C@@H](NC(=O)[C@H](Cc1ccccc1)NC(=O)[C@@H](NC(=O)[C@H](C)NC(=O)[C@H](CC(=O)O)NC(=O)[C@H](CO)NC(=O)[C@H](Cc1c[nH]cn1)NC(C)=O)C(C)C)[C@@H](C)O)[C@@H](C)O)C(=O)N[C@@H](C)C(=O)N[C@@H](C)C(=O)N[C@@H](CCCCN)C(=O)N[C@@H](CCCCN)C(=O)N[C@@H](Cc1ccc(O)cc1)C(=O)N[C@@H](CC(C)C)C(=O)N[C@@H](CC(N)=O)C(=O)N[C@@H](CO)C(=O)N[C@H](C(=O)N[C@@H](CC(C)C)C(=O)N[C@H](C(=O)NCC(=O)N[C@@H](CCCCN)C(N)=O)[C@@H](C)O)C(C)C) [Ac--(SEQ ID NO: 11)--NH2]” showed an EC50 of 0.58 nM. Besides, the “Bronchodilator activity” value in the experiment on guinea pigs worked out at 0.58 µg.

“Ac--[Leu^5, p-F--Phe^6, Glu^8, Orn^12, Ala^17,19, Thr^25, Val^26, Thr^28, Gly^29,30, Cys(Acm)^31 ]--VIP (Ac-HSDAL[Phe(4-F)]TENYT[Orn]LRKQAAAKKYLNTVLTGG[Cys(Acm)]-NH2; SMILES CC(=O)NCSC[C@H](NC(=O)CNC(=O)CNC(=O)[C@@H](NC(=O)[C@H](CC(C)C)NC(=O)[C@@H](NC(=O)[C@@H](NC(=O)[C@H](CC(N)=O)NC(=O)[C@H](CC(C)C)NC(=O)[C@H](Cc1ccc(O)cc1)NC(=O)[C@H](CCCCN)NC(=O)[C@H](CCCCN)NC(=O)[C@H](C)NC(=O)[C@H](C)NC(=O)[C@H](C)NC(=O)[C@H](CCC(N)=O)NC(=O)[C@H](CCCCN)NC(=O)[C@H](CCCNC(=N)N)NC(=O)[C@H](CC(C)C)NC(=O)[C@H](CCCN)NC(=O)[C@@H](NC(=O)[C@H](Cc1ccc(O)cc1)NC(=O)[C@H](CC(N)=O)NC(=O)[C@H](CCC(=O)O)NC(=O)[C@@H](NC(=O)[C@H](Cc1ccc(F)cc1)NC(=O)[C@H](CC(C)C)NC(=O)[C@H](C)NC(=O)[C@H](CC(=O)O)NC(=O)[C@H](CO)NC(=O)[C@H](Cc1c[nH]cn1)NC(C)=O)[C@@H](C)O)[C@@H](C)O)[C@@H](C)O)C(C)C)[C@@H](C)O)C(N)=O) [Ac--(SEQ ID NO: 13)--NH2]” displayed an EC50 in experiment [1] of 0.68 nM. The “Bronchodilator activity” value with guinea pigs is 0.09 µg.
